In series [1] the target is T1, Peroxisome proliferator-activated receptor delta (Homo sapiens, UniProt Q03181).
T1 sequence (Q03181 whole entry): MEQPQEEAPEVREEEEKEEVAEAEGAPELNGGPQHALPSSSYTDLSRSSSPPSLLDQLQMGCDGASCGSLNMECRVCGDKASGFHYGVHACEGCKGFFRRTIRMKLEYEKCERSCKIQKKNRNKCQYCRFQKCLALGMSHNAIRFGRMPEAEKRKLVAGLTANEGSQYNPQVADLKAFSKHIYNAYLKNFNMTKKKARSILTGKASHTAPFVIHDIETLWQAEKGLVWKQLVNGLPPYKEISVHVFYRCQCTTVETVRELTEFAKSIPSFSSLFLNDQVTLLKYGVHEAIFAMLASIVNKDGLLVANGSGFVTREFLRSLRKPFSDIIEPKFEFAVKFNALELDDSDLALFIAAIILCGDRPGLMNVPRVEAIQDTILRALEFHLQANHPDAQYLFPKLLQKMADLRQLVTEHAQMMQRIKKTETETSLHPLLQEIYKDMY
Kind of series: Transactivation of human PPARdelta expressed in African green monkey COS7 cells incubated overnight by dual-glo luciferase reporter gene assay. The format is cell-based. The settings on record: cos-7.

Series [2] addresses T2, Peroxisome proliferator-activated receptor delta (Homo sapiens) (UniProt Q03181).
T2 sequence (whole entry): T1 sequence (Q03181 whole entry)
Kind of series: Transactivation of human PPARdelta expressed in African green monkey COS7 cells at 10 uM incubated overnight by dual-glo luciferase reporter assay. The settings on record: COS-7. Type of series: cell-based.

The nature of series [3]: Solubility of the compound in water by microplate reader analysis. The format is physicochemical.
Series [4] concerns the target T3, Peroxisome proliferator-activated receptor alpha (Homo sapiens) (UniProt Q07869).
T3 sequence (whole entry): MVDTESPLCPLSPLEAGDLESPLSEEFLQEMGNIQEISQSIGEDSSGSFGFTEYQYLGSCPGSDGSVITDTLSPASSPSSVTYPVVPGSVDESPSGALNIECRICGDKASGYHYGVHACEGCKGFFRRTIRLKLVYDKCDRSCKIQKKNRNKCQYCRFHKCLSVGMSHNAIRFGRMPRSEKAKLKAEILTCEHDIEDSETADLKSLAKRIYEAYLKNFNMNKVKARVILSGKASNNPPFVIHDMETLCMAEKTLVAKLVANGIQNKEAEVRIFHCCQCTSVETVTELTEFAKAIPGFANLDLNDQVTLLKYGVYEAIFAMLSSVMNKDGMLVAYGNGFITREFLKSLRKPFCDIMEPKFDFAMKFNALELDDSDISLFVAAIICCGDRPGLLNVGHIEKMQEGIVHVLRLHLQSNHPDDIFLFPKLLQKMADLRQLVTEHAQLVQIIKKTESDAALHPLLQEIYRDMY
Briefly: Transactivation of human PPARalpha expressed in African green monkey COS7 cells incubated overnight by dual-glo luciferase reporter assay relative to GW7647. Type of series: cell-based. The settings on record: COS-7.

For series [5], the target named is T4, Peroxisome proliferator-activated receptor alpha (Homo sapiens, UniProt Q07869).
T4 sequence (Q07869 whole entry): T3 sequence (whole entry)
The following applies: cos-7.
Description: Transactivation of human PPARalpha expressed in African green monkey COS7 cells incubated overnight by dual-glo luciferase reporter gene assay

Among the data in ChEMBL document CHEMBL3763124, “N-Benzylbenzamides: A Novel Merged Scaffold for Orally Available Dual Soluble Epoxide Hydrolase/Peroxisome Proliferator-Activated Receptor γ Modulators” (J Med Chem, 2016) are EC50, Emax and solubility values, retold here.

In brackets after ≈: the same amount, converted by molar mass. Activity calls are given as the source filed them. No cut-off for these calls is given here.

`CCOC(=O)C(C)Cc1ccc(C(=O)NCc2ccccc2C(F)(F)F)cc1` (stereo unspecified): the EC50 result in series [1] and in series [5] was “Not Active” each time. Also, the Emax entry in series [2] and in series [4] was “inactive” each time. The compound also yielded a solubility in series [3] of 7.5 µM (≈ 2.95 µg/mL).
For the compound `CCCC(Cc1ccc(C(=O)NCc2ccccc2C(F)(F)F)cc1)C(=O)O` (stereo unspecified), the EC50 result in series [1] and in series [5] was “Not Active” each time. The Emax entry in series [2] and in series [4] was “inactive” each time. The compound also yielded a solubility in series [3] of 375 µM (≈ 148 µg/mL).
Regarding `O=C(NCc1ccccc1C(F)(F)F)c1ccc(CC(C(=O)O)c2ccccc2)cc1` (stereo unspecified), the EC50 result in series [1] and in series [5] was “Not Active” each time. Also, the Emax entry in series [2] and in series [4] was “inactive” each time. The same compound showed a solubility in series [3] of 75 µM (≈ 32.1 µg/mL).
As for `O=C(NCc1ccccc1C(F)(F)F)c1ccc(C2CC2C(=O)O)cc1` (stereo unspecified), the EC50 entry in series [1] and in series [5] was “Not Active” throughout. Moreover, the Emax result in series [2] and in series [4] was “inactive” in each case.
With `CCOC(=O)/C(=C/c1ccc(C(=O)NCc2ccccc2C(F)(F)F)cc1)CC`, the EC50 entry in series [1] and in series [5] was “Not Active” each time. The Emax entry in series [2] and in series [4] was “inactive” in each case.
As to `CCOC(=O)C(Cc1ccc(C(=O)NCc2ccccc2C(F)(F)F)cc1)c1ccccc1` (stereo unspecified), the EC50 result in series [1] and in series [5] was “Not Active” in each case. Besides, the Emax result in series [2] and in series [4] was “inactive” each time. Besides, the solubility in series [3] came to 3.75 µM (≈ 1.71 µg/mL).
In the case of `O=C(O)CCc1ccc(C(=O)NCc2ccccc2C(F)(F)F)cc1`, the EC50 result in series [1] and in series [5] was “Not Active” in each case. In addition, the Emax entry in series [2] and in series [4] was “inactive” throughout. This compound also registered a solubility in series [3] of 375 µM (≈ 132 µg/mL).
As to `CCOC(=O)C(CC)Cc1cccc(C(=O)NCc2ccccc2C(F)(F)F)c1` (stereo unspecified), the EC50 result in series [1] and in series [5] was “Not Active” each time. Besides, the Emax entry in series [2] and in series [4] was “inactive” throughout.
Regarding `CC(Cc1ccc(C(=O)NCc2ccccc2C(F)(F)F)cc1)C(=O)O` (stereo unspecified), the EC50 entry in series [1] and in series [5] was “Not Active” throughout. Moreover, the Emax entry in series [2] and in series [4] was “inactive” in each case. The compound further showed a solubility in series [3] of 375 µM (≈ 137 µg/mL).
As to `CC/C(=C\c1ccc(C(=O)NCc2ccccc2C(F)(F)F)cc1)C(=O)O`, the EC50 result in series [1] and in series [5] was “Not Active” in each case. Besides, the Emax result in series [2] and in series [4] was “inactive” in each case.
As to `CCCC(Cc1ccc(C(=O)NCc2ccccc2C(F)(F)F)cc1)C(=O)OCC` (stereo unspecified), the EC50 result in series [1] and in series [5] was “Not Active” each time. The Emax entry in series [2] and in series [4] was “inactive” throughout. This compound also returned a solubility in series [3] of 3.75 µM (≈ 1.58 µg/mL).
For the compound `CCOC(=O)CCc1ccc(C(=O)NCc2ccccc2C(F)(F)F)cc1`, the EC50 result in series [1] and in series [5] was “Not Active” throughout. The Emax result in series [2] and in series [4] was “inactive” each time. The concentration in solution in series [3] (solubility) was 3.75 µM (≈ 1.42 µg/mL).
